Test results as given in the supplement of paper PMC11061612.

Tests used:
[1] = tested on: D-263MG (Glioblastoma); test: Bliss excess, mean over the matrix (fraction); higher = more synergy;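 also: after 72 h of two-drug dosing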
Outline: (§1)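 After 24 hours at 37°C and 5% CO2 in 1536-well plates, cells in DMEM/F12 or RPMI plus 10% FBS received two-drug dose matrices for 72 hours. Viability came from CellTiter-Glo 2.0 luminescence and was scaled as inhibition, anchored at 0 by vehicle wells and at 1 by blank wells. Combination Emax is taken as the second-highest inhibition in the matrix, and Bliss excess as the observed combination effect less EA + EB − EA·EB, with EA and EB the single-agent effects.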

[2] = tested on: EW-24 (Ewing's Sarcoma); test: combination Emax (second highest fraction inhibited in the dose matrix, 72 h); higher = more inhibition; extreme values may be limits of the assay
Outline: as §1

[3] = tested on: TE-1 (Esophageal Squamous Cell Carcinoma); test: as above
Outline: as §1

[4] = tested on: KARPAS-299 (T-Cell Non-Hodgkin's Lymphoma); test: as above
Outline: as §1

[5] = tested on: NCI-H1915 (Non-Small Cell Lung Carcinoma); test: as above
Outline: as §1

[6] = tested on: SCC-15 (Oral Cavity Carcinoma); test: as above
Outline: as §1

[7] = tested on: UACC-62 (Melanoma); test: as above
Outline: as §1

[8] = tested on: OE19 (Esophageal Adenocarcinoma); test: as above
Outline: as §1

[9] = tested on: KYSE-450 (Esophageal Squamous Cell Carcinoma); test: as above
Outline: as §1

[10] = tested on: RF-48 (B-Cell Non-Hodgkin's Lymphoma); test: as above
Outline: as §1

[11] = tested on: NCI-H358 (Lung Adenocarcinoma); test: as above
Outline: as §1

[12] = tested on: NCI-H727 (Other Solid Carcinomas); test: as above
Outline: as §1

[13] = tested on: EoL-1-cell (Acute Myeloid Leukemia); test: as above
Outline: as §1

[14] = tested on: HOP-62 (Lung Adenocarcinoma); test: as above
Outline: as §1

[15] = tested on: HGC-27 (Gastric Carcinoma); test: as above
Outline: as §1

[16] = tested on: KMOE-2 (Acute Myeloid Leukemia); test: as above
Outline: as §1

[17] = tested on: ACHN (Kidney Carcinoma); test: as above
Outline: as §1

[18] = tested on: OVCAR-4 (Ovarian Carcinoma); test: as above
Outline: as §1

[19] = tested on: Hs-766T (Pancreatic Carcinoma); test: as above
Outline: as §1

[20] = tested on: NB69 (Neuroblastoma); test: as above
Outline: as §1

Compound	Bliss excess [1]	combination Emax [2]	combination Emax [3]	combination Emax [4]	combination Emax [5]	combination Emax [6]	combination Emax [7]	combination Emax [8]	combination Emax [9]	combination Emax [10]	combination Emax [11]	combination Emax [12]	combination Emax [13]	combination Emax [14]	combination Emax [15]	combination Emax [16]	combination Emax [17]	combination Emax [18]	combination Emax [19]	combination Emax [20]
CN(C)CCCOc1ccc(-c2ccc3ncc4c(c3c2)n(C2CCOCC2)c(=O)n4C)cn1 [AZD0156] + C=CCn1c(=O)c2cnc(Nc3ccc(N4CCN(C)CC4)cc3)nc2n1-c1cccc(C(C)(C)O)n1 [AZD1775] (first compound max 1 µM, partner max 1 µM)	-0.039	0.279	0.627	0.918	0.563	0.308	0.391	0.427	0.583	0.602	0.472	0.333	0.996	0.266	0.499	0.854	0.933	0.55	0.43	0.877
CN(C)CCCOc1ccc(-c2ccc3ncc4c(c3c2)n(C2CCOCC2)c(=O)n4C)cn1 [AZD0156] + CCN(CCO)CCCOc1ccc2c(Nc3cc(CC(=O)Nc4cccc(F)c4)[nH]n3)ncnc2c1 [AZD2811] (first compound max 1 µM, 7x7, partner max 1 µM)	-0.0339	0.302	0.254	0.243	0.299	0.201	0.188	0.722	0.193	0.305	0.157	0.155	0.999	0.0853	0.866	0.21	0.135	0.148	0.0844	0.588
CN(C)CCCOc1ccc(-c2ccc3ncc4c(c3c2)n(C2CCOCC2)c(=O)n4C)cn1 [AZD0156] + C[C@@H]1COCCN1C2=NC(=NC(=C2)C3(CC3)[S@](=N)(=O)C)C4=C5C=CNC5=NC=C4 [AZD6738] (first compound max 1 µM, 7x7, partner max 10 µM)	0.0366	0.552	0.462	0.953	0.522	0.446	0.555	0.869	0.649	0.588	0.656	0.635	0.987	0.546	0.862	0.59	0.883	0.697	0.607	0.745
CN(C)CCCOc1ccc(-c2ccc3ncc4c(c3c2)n(C2CCOCC2)c(=O)n4C)cn1 [AZD0156] + O=C(c1cc(Cc2n[nH]c(=O)c3ccccc23)ccc1F)N1CCN(C(=O)C2CC2)CC1 [Olaparib] (first compound max 3 µM, partner max 3 µM)	0.0132	0.473	0.0888	0.467	0.231	0.277	0.183	0.512	0.159	0.319	0.247	0.286	0.732	0.122	0.478	0.239	0.338	0.149	0.207	0.474
C=CCn1c(=O)c2cnc(Nc3ccc(N4CCN(C)CC4)cc3)nc2n1-c1cccc(C(C)(C)O)n1 [AZD1775] + C1CN(CCC1(C(=O)N[C@@H](CCO)C2=CC=C(C=C2)Cl)N)C3=NC=NC4=C3C=CN4 [Capivasertib] (first compound max 3 µM, partner max 3 µM)	-0.0143	0.503	0.732	0.947	0.657	0.676	0.458	0.717	0.843	0.86	0.663	0.667	1	0.428	0.886	0.938	0.825	0.672	0.325	0.942
C=CCn1c(=O)c2cnc(Nc3ccc(N4CCN(C)CC4)cc3)nc2n1-c1cccc(C(C)(C)O)n1 [AZD1775] + C[C@@H]1COCCN1C2=NC(=NC(=C2)C3(CC3)[S@](=N)(=O)C)C4=C5C=CNC5=NC=C4 [AZD6738] (first compound max 1 µM, partner max 10 µM)	-0.0766	0.652	0.654	0.965	0.658	0.517	0.622	0.918	0.946	0.669	0.732	0.654	1	0.668	0.966	0.92	0.964	0.843	0.643	0.971
Cc1c2c(nn1C)CSCc1cc(n(C)n1)CSc1cc(c3ccccc3c1)OCCCc1c(C(=O)O)n(C)c3c-2c(Cl)ccc13 [AZD5991] + C1CN(CCC1(C(=O)N[C@@H](CCO)C2=CC=C(C=C2)Cl)N)C3=NC=NC4=C3C=CN4 [Capivasertib] (first compound max 1 µM, 7x7, partner max 3 µM)	0.083	0.332	0.553	1	0.18	0.207	0.934	0.442	0.376	0.353	0.243	0.374	1	0.257	0.861	0.793	–	0.18	0.23	0.794
Cc1c2c(nn1C)CSCc1cc(n(C)n1)CSc1cc(c3ccccc3c1)OCCCc1c(C(=O)O)n(C)c3c-2c(Cl)ccc13 [AZD5991] + CN(C)CCCOc1ccc(-c2ccc3ncc4c(c3c2)n(C2CCOCC2)c(=O)n4C)cn1 [AZD0156] (first compound max 1 µM, 7x7, partner max 1 µM)	0.0047	0.291	0.635	0.978	0.439	0.269	0.812	0.573	0.251	–	0.308	0.289	0.999	0.473	0.51	0.797	0.179	0.279	0.372	0.666
CS(=O)(=O)CCNCc1ccc(-c2ccc3ncnc(Nc4ccc(OCc5cccc(F)c5)c(Cl)c4)c3c2)o1 [Lapatinib] + NC1(c2ccc(-c3nc4ccn5c(=O)[nH]nc5c4cc3-c3ccccc3)cc2)CCC1 [MK-2206] (first compound max 10 µM, 7x7, partner max 10 µM)	-0.0222	0.925	–	0.926	–	–	0.516	–	0.602	0.658	0.631	0.88	0.973	–	0.988	–	0.676	–	0.303	0.941
O=C(c1cc(Cc2n[nH]c(=O)c3ccccc23)ccc1F)N1CCN(C(=O)C2CC2)CC1 [Olaparib] + COc1nnc2ccc(N3CCC(c4ccc(OCCN5CCN(C)C(=O)[C@H]5C)cc4)CC3)nn12 [AZD5153] (first compound max 10 µM, 7x7, partner max 1 µM)	-0.057	0.639	–	0.774	–	–	0.491	–	0.235	0.354	0.295	0.288	0.97	–	–	–	0.539	–	0.396	0.959
O=C(c1cc(Cc2n[nH]c(=O)c3ccccc23)ccc1F)N1CCN(C(=O)C2CC2)CC1 [Olaparib] + Cc1c2c(nn1C)CSCc1cc(n(C)n1)CSc1cc(c3ccccc3c1)OCCCc1c(C(=O)O)n(C)c3c-2c(Cl)ccc13 [AZD5991] (first compound max 10 µM, 7x7, partner max 1 µM)	-0.0401	0.193	–	0.931	–	–	0.568	–	0.0895	0.365	0.197	0.106	1	–	–	–	0.177	–	0.0824	0.886
CCc1c2c(nc3ccc(O)cc13)-c1cc3c(c(=O)n1C2)COC(=O)[C@]3(O)CC [SN-38] + O=C(c1cc(Cc2n[nH]c(=O)c3ccccc23)ccc1F)N1CCN(C(=O)C2CC2)CC1 [Olaparib] (first compound max 0.3 µM, 7x7, partner max 10 µM)	0.0617	0.821	–	0.896	–	–	0.843	0.309	0.671	0.775	0.693	0.256	0.99	0.672	0.852	0.983	0.912	0.24	0.415	0.967
Cc1nc(-c2cn3c(n2)-c2ccc(-c4cnn(C(C)(C)C(N)=O)c4)cc2OCC3)n(C(C)C)n1 [Taselisib] + O=C(Nc1ccc2[nH]nc(-c3ccncc3)c2c1)[C@@H]1CCN(CC(=O)N2CCN(c3ccc(-c4ncccn4)cc3)CC2)C1 [SCH772984] (first compound max 10 µM, 7x7, partner max 5 µM)	0.0047	0.602	–	0.413	–	–	0.955	–	0.725	0.36	0.798	0.958	1	–	–	–	0.692	–	0.676	0.997
CC1(C)CCC(CN2CCN(c3ccc(C(=O)NS(=O)(=O)c4ccc(NCC5CCOCC5)c([N+](=O)[O-])c4)c(Oc4cnc5[nH]ccc5c4)c3)CC2)=C(c2ccc(Cl)cc2)C1 [Venetoclax] + CS(=O)(=O)CCNCc1ccc(-c2ccc3ncnc(Nc4ccc(OCc5cccc(F)c5)c(Cl)c4)c3c2)o1 [Lapatinib] (first compound max 1 µM, 7x7, partner max 10 µM)	-0.0669	0.245	–	0.337	–	–	0.256	–	0.34	0.34	0.431	0.246	0.986	–	–	–	0.52	–	0.208	0.598
